Source: paper PMC8586984, “Antiviral Potential of Naphthoquinones Derivatives Encapsulated within Liposomes” (Molecules, 2021)

Key:
[1] = Cytotoxicity assay (MTT); assay type: cell-based, African green monkey (Cercopithecus aethiops); conditions: African green monkey, free (not encapsulated), Vero cells
Description: Initially, we evaluated the influence of liposomes on cell viability. For this, monolayers of Vero cells (10^4 cells/mL) were incubated with several concentrations of 2-aminomethyl-3-hydroxy-1,4 naphthoquinone derivatives that either were or were not encapsulated in the liposome (0.5 to 10 μM) for 48 h at 37 °C (Table 2). Following this, 1 mg/mL of 3-(4,5-Dimethylthiazol-2-yl)-2,5 Diphenyl Tetrazolium Bromide was added to each well for 4 h at 37 °C and the resulting purple formazan was followed at 570 nm. Since liposomes are considered an excellent delivery system, it may be reasonable for the liposome to increase the cytotoxic effect on cells.
Vero cells cultivated in 96-multiwell plates (1 × 10^4 cells/well) were incubated with liposomes coupled to 2-aminomethyl-3-hydroxy-1,4-naphthoquinones in different concentrations (0.5, 1, 5 and 10 μM) for 48 h at 37 °C and 5% CO2 atmosphere. Then, 50 μL of 3-(4,5-dimethylthiazol-2-yl)-2,5 diphenyl MTT (1 mg/mL, Sigma-Aldrich, St Louis, MO, USA) was added to each well for 4 h at 37 °C [48]. The MTT reduction in living cells creates formazan, a purple compound that is absorbed at 570 nm. The 50% cytotoxic concentration (CC50) was calculated by linear regression analysis of the dose–response curves.

[2] = system: HSV-1; parameters: method as in PMID 24493066, PMID 26913545; conditions: free compounds, previous studies against HSV-1; ref [36],[38]; cited from earlier work
[3] = system: HSV-1 strain SC-16; experiment: Yield reduction assay; assay type: cell-based, Herpes Simplex Virus 1; conditions: for EC50: Human alphaherpesvirus 1, SC16; for SI (CC50/EC50 ratio): free (non-encapsulated) derivatives, concentrations up to 10 μM
Description: Briefly, after incubation with HSV-1 (MOI of 0.1) for 1 h at 37 °C, cells were washed with MEM 5% FCS and incubated with acyclovir, […] from 0.01 to 10 μM for 24 h in atmosphere, with 5% CO2 at 37 °C. After the dilution (1:10) of the viral suspension, new 24-well plates were used to determine the EC50 values, based on viral control.
For all antiviral assays, strain SC-16 HSV-1 was used at a multiplicity of infection (MOI) of 0.1 to infect Vero cells at 3 × 10^5 cells/well using a modified yield reduction assay. All aminomethylnaphthoquinone derivatives were previously diluted in pre-chilled MEM with 5% FCS.
To determine the HSV-1 title, Vero cells maintained in 24-multiwell plates (3 × 10^5 cell/well) were infected with HSV-1 strain SC-16 ([…]) for 1 h at 37 °C and 5% CO2 atmosphere.
After the removal of the viral inoculum, cells were treated with 0.01 µM to 10 µM of compound 1, 2, 3 and ACV encapsulated in liposomes for 24 h at 37 °C and 5% CO2 atmosphere. Then, the cells were subjected to three cycles of freezing and thawing and the inoculum diluted (1:10) to a new infection in 24-multiwell plates (10^5 cells/well) for 1 h at 37 °C and 5% CO2 atmosphere. The cells were covered with MEM 2X, 5% FCS and 2% methylcellulose for 48h at 37 °C and the viral title was determined by the number of viral plaque units per mL (PFU/mL). EC50 values, which means the drug concentration able to inhibit 50% of the viral plaque formation, were determined by linear regression compared to the untreated infected control.

[4] = system: BALB/c; parameters: method as in earlier work; conditions: oral administration, ref [37]; cited from earlier work

Structure (SMILES)	CC50 at 48 h [1]	SI [2]	EC50 [3]	SI (CC50/EC50 ratio) [3]	Effect on transaminases level or kidneys functions [4]
Nc1nc2c(ncn2COCCO)c(=O)[nH]1 [Acyclovir, acyclovir, reference compound]	15 ± 1 µM	0.80			
O=C1C(O)=C(C(NCc2ccccc2)c2ccc([N+](=O)[O-])cc2)C(=O)c2ccccc21 (stereo not drawn) [compound 3]	17 ± 2 µM		3.1 µM	5.48	
CCCCNC(C1=C(O)C(=O)c2ccccc2C1=O)c1ccc(Cl)cc1Cl (stereo not drawn) [compound 1]	19 ± 1 µM		1.98 ± 0.3 µM	9.6	no effect on transaminases level or kidneys functions
O=C1C(O)=C(C(NCc2ccccc2)c2ccc(Cl)cc2Cl)C(=O)c2ccccc21 (stereo not drawn) [compound 2]	22 ± 2 µM		1.06 ± 0.49 µM	20.75	
